Measurements as given in paper PMC3660741, “Structure of a pore-blocking toxin in complex with a eukaryotic voltage-dependent K^+ channel” (eLife, 2013).

Assays:
Phe425Gly(Shaker) = conditions: Gly10Val(AgTx2)–Phe425Gly(Shaker) pair; ref Ranganathan et al., 1996; cited from earlier work
From the text: (§1) From analyzing mutants of AgTx2 and Shaker, MacKinnon and Ranganathan derived a coupling energy of >3 kT for the Gly10Val(AgTx2)–Phe425Gly(Shaker) pair and ∼1.5 kT for the Gly10Val(AgTx2)–Thr449Cys(Shaker) pair ([Ranganathan et al., 1996]). Phe425 and Thr449 in Shaker map onto Gln353 and Val377 in paddle chimera (Figure 2B).

Thr449Cys(Shaker) = conditions: Gly10Val(AgTx2)–Thr449Cys(Shaker) pair; ref Ranganathan et al., 1996; cited from earlier work
From the text: as §1

Tyr445Phe(Shaker) = conditions: ref Ranganathan et al., 1996, cited from earlier work
From the text: Another case worth highlighting is the coupling energy, ∼1.5 kT, between the Lys27Met(AgTx2)–Tyr445Phe(Shaker) pair. Tyr445 in Shaker maps to Tyr373 in paddle chimera (Figure 2B; [Ranganathan et al., 1996]). Since mutation of Tyr to Phe incurs only a loss of the hydroxyl group, one likely interpretation of this would have been that Lys27 contacts the hydroxyl group of Tyr445. Intriguingly, Lys27 only contacts the backbone carbonyl oxygen of Tyr445, a point farthest from the hydroxyl group (Figure 10B). However, since this is a tightly packed part of the protein structure with the hydroxyl grou ...

[1] = biological target: T1, Kv2.1 paddle–Kv1.2 chimera channel (paddle chimera) (Rattus norvegicus, UniProt P63142, DEL270-295/F267Y/F302L/I268V/INS296[…]/L298I/N207Q/V299M/V301I); assay: CTX inhibition of paddle chimera in planar lipid bilayer, dose-response fitted for Kd; type: biochemical; conditions: CsCl vs KCl on both sides; planar bilayer of 20 mg/ml DPhPC; holding −110 mV, pulsed to +110 mV; n = 2–4
T1 construct: made in house; host or cells: Pichia pastoris
T1 sequence (P63142 with tags, fused parts or gaps with the stated changes): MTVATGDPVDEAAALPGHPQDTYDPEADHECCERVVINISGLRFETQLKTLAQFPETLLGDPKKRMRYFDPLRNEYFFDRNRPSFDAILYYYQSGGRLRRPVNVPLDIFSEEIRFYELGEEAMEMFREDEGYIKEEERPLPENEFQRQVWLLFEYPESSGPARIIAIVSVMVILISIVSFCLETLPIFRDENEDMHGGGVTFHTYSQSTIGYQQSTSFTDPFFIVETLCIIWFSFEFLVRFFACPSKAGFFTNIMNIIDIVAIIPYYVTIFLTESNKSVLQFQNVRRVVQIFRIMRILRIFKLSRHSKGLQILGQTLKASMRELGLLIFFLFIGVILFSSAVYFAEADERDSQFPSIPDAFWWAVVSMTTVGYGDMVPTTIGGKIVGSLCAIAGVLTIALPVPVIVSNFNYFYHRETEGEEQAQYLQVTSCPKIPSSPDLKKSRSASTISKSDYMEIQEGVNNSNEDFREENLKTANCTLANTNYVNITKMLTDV
T1 sequence (P62483 36-367 partner limits assumed): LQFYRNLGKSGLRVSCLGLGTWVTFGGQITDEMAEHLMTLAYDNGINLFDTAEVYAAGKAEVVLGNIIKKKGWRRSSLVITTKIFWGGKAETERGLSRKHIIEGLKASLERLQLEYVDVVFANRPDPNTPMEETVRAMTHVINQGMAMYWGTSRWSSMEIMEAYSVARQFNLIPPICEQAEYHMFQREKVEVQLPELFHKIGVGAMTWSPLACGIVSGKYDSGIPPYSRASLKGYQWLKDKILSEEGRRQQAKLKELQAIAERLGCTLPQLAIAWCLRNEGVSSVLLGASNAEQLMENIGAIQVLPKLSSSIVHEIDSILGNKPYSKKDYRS
From the text: Figure 8. Effects of Lys27Met mutation of CTX and Cs^+ separately on toxin-channel interactions. (A) CTX inhibition. The fraction of unblocked current (I/Imax, mean ± SEM or range of mean; n = 2–4) is graphed as a function of CTX concentration (in nM) and fit to the equation I/Imax = 0.1 + 0.9 × (1 + [CTX]/Kd)^−1. Voltage pulses: holding −110 mV, depolarized to +110 mV, followed by a step back to −110 mV. Paddle chimera–wild-type CTX with KCl on both sides is shown in red, paddle chimera–wild-type CTX with CsCl on both sides is shown in blue and paddle chimera–Lys27Met CTX with KCl on both sides is shown in black. The modified equation accounts for approximately 10% current that is due largely to the channels facing the other side and are not blocked by toxin. (B) The pore domains from two diagonal subunits of paddle chimera (molecule A) in the Lys27MetCTX–paddle chimera complex are shown in green α carbon trace and a toxin-omit weighted 2Fo − Fc electron density map is shown in wire mesh at 1σ contour level. […]
The membranes were held at −110 mV and repeatedly pulsed to +110 mV test voltage. CTX inhibition data measured with different concentrations of CTX or Lys27Met mutant of CTX were fit to the equation: I/Imax=0.1+0.9×(1+[CTX]/Kd)^−1. […]

Shaker K+ channel = conditions: cited from earlier work
From the text: In studies with the BK channel, [MacKinnon and Miller (1988)] first observed that permeant ions coming through the channel from the intracellular side enhance the dissociation of a toxin bound to its receptor on the extracellular side.

paddle chimera = conditions: planar lipid bilayers; ref Tao and MacKinnon, 2008; read-out: Kd (inhibition of paddle chimera); cited from earlier work
BK channel = conditions: 1988, cited from earlier work
From the text: Charybdotoxin (CTX; Figure 1B), a pore-blocking toxin for K^+ channels, is a 37-residue peptide isolated from the venom of the scorpion Leiurus quinquestriatus ([Miller et al., 1985]).

[2] = biological target: Kv2.1 paddle–Kv1.2 chimera channel in complex with the rat β2-core subunit (rat) (UniProt P63142); assay: planar lipid bilayer electrophysiology (inhibition of channel current)

charybdotoxin, wild type, sequence (P13487 23-59): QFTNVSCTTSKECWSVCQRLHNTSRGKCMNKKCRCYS

Gly10Val(AgTx2): Gly10Val mutant of AgTx2 (Ranganathan et al., 1996)
coupling energy (Phe425Gly(Shaker)): > 3 kT
coupling energy (Thr449Cys(Shaker)): ~1.5 kT

Lys27Met(AgTx2): Lys27Met mutant of AgTx2 (Ranganathan et al., 1996)
K+ dependence of the interaction between the two residues (Tyr445Phe(Shaker); Lys27 (AgTx2) and Tyr445 (Shaker)): dependent on the K^+ concentration
coupling energy (Tyr445Phe(Shaker); Lys27Met(AgTx2)–Tyr445Phe(Shaker) pair): ~1.5 kT

charybdotoxin [CTX]
reduction in affinity in the presence of Cs+ compared to K+ [1]: ~10 fold
trans-enhanced dissociation effect of permeant ions on CTX block (Shaker K+ channel; ref Goldstein and Miller, 1993): subsequently confirmed for Shaker as well
Kd (paddle chimera): ~20 nM
channel states competent for toxin binding (BK channel; ref Anderson et al.): both the open and closed states of the channel are competent for toxin binding
role of electrostatic interactions in affinity (BK channel; ref Anderson et al.): electrostatic interactions play an important role in enhancing the toxin’s affinity
voltage dependence of affinity (BK channel; results from trans-enhanced dissociation by permeant ions entering from the intracellular side, ref MacKinnon and Miller): voltage dependent

charybdotoxin, wild type (from UniProt P13487 23-59) (peptide)
fold reduction of affinity in Cs+ against K+ [2]: 10 fold

mutation of Lys27 to Arginine: conservative mutation of Lys27 to Arginine, literature CTX mutant (Goldstein et al., 1994)
destabilization of the toxin-channel complex (Shaker K+ channel; conservative mutation of Lys27 to Arginine, Shaker, ref Goldstein et al., 1994): ~1000 fold
